Reference: the NIST ThermoML archive (doi:10.1021/acs.jced.7b00347)

Test: mn = molality of the nth substance listed, in mol/kg
Conditions: for surface tension liquid-gas: Ring tensiometer; for electrical conductivity: 100 kPa, Liquid, Alternating current cell with electrodes

CCCCCCCCC[NH+](CCO)CC(C)O.[Cl-] (stereo not drawn) + O
Conditions | electrical conductivity [S/m] | surface tension liquid-gas [mN/m]
293.15 K, m1 = 1.77e-05 | 0.00044 | –
293.15 K, m1 = 1.774e-05 | – | 61.16
293.15 K, m1 = 3.548e-05 | – | 54.59
293.15 K, m1 = 3.66e-05 | 0.000507 | –
293.15 K, m1 = 5.55e-05 | 0.000574 | –
293.15 K, m1 = 7.43e-05 | 0.000641 | –
293.15 K, m1 = 8.87e-05 | – | 46.05
293.15 K, m1 = 9.32e-05 | 0.000709 | –
293.15 K, m1 = 0.0001121 | 0.000776 | –
293.15 K, m1 = 0.0001309 | 0.000843 | –
293.15 K, m1 = 0.0001498 | 0.00091 | –
293.15 K, m1 = 0.0001687 | 0.000977 | –
293.15 K, m1 = 0.0001774 | – | 39.04
293.15 K, m1 = 0.0001875 | 0.00104 | –
293.15 K, m1 = 0.0002064 | 0.00111 | –
293.15 K, m1 = 0.0002253 | 0.00118 | –
293.15 K, m1 = 0.0002441 | 0.00125 | –
293.15 K, m1 = 0.000263 | 0.00131 | –
293.15 K, m1 = 0.0002661 | – | 35.47
293.15 K, m1 = 0.0002819 | 0.00138 | –
293.15 K, m1 = 0.0003008 | 0.00145 | –
293.15 K, m1 = 0.0003196 | 0.00152 | –
293.15 K, m1 = 0.0003385 | 0.00158 | –
293.15 K, m1 = 0.0003548 | – | 33.14
293.15 K, m1 = 0.0003574 | 0.00165 | –
293.15 K, m1 = 0.0003762 | 0.00172 | –
293.15 K, m1 = 0.0003951 | 0.00178 | –
293.15 K, m1 = 0.000414 | 0.00185 | –
293.15 K, m1 = 0.0004257 | – | 31.39
293.15 K, m1 = 0.0004328 | 0.00192 | –
293.15 K, m1 = 0.0004555 | 0.00197 | –
293.15 K, m1 = 0.0004782 | 0.00202 | –
293.15 K, m1 = 0.0005009 | 0.00207 | –
293.15 K, m1 = 0.0005236 | 0.00212 | –
293.15 K, m1 = 0.0005464 | 0.00217 | –
293.15 K, m1 = 0.0005691 | 0.00222 | –
293.15 K, m1 = 0.0005918 | 0.00227 | –
293.15 K, m1 = 0.0006145 | 0.00232 | –
293.15 K, m1 = 0.0006372 | 0.00236 | –
293.15 K, m1 = 0.0006599 | 0.00242 | –
293.15 K, m1 = 0.0006826 | 0.00246 | –
293.15 K, m1 = 0.0007053 | 0.00251 | –
293.15 K, m1 = 0.000728 | 0.00256 | –
293.15 K, m1 = 0.0007507 | 0.00261 | –
293.15 K, m1 = 0.0007734 | 0.00266 | –
293.15 K, m1 = 0.0007961 | 0.00271 | –
293.15 K, m1 = 0.0008188 | 0.00276 | –
293.15 K, m1 = 0.0008415 | 0.00281 | –
293.15 K, m1 = 0.0008642 | 0.00286 | –
293.15 K, m1 = 0.0008869 | 0.00291 | –
293.15 K, m1 = 0.000887 | – | 30.48
293.15 K, m1 = 0.001774 | – | 29.73
293.15 K, m1 = 0.002661 | – | 29.56
293.15 K, m1 = 0.003547 | – | 29.48
298.15 K, m1 = 1.77e-05 | 0.00054 | –
298.15 K, m1 = 1.774e-05 | – | 56.05
298.15 K, m1 = 3.548e-05 | – | 49.71
298.15 K, m1 = 4.07e-05 | 0.000642 | –
298.15 K, m1 = 6.36e-05 | 0.000745 | –
298.15 K, m1 = 8.66e-05 | 0.000848 | –
298.15 K, m1 = 8.87e-05 | – | 41.62
298.15 K, m1 = 0.0001095 | 0.00095 | –
298.15 K, m1 = 0.0001324 | 0.00105 | –
298.15 K, m1 = 0.0001554 | 0.00115 | –
298.15 K, m1 = 0.0001774 | – | 35.73
298.15 K, m1 = 0.0001783 | 0.00126 | –
298.15 K, m1 = 0.0002013 | 0.00136 | –
298.15 K, m1 = 0.0002242 | 0.00146 | –
298.15 K, m1 = 0.0002472 | 0.00156 | –
298.15 K, m1 = 0.0002661 | – | 32.44
298.15 K, m1 = 0.0002701 | 0.00167 | –
298.15 K, m1 = 0.000293 | 0.00177 | –
298.15 K, m1 = 0.000316 | 0.00187 | –
298.15 K, m1 = 0.0003389 | 0.00198 | –
298.15 K, m1 = 0.0003619 | 0.00208 | 30.45
298.15 K, m1 = 0.0003881 | 0.00215 | –
298.15 K, m1 = 0.0004144 | 0.00222 | –
298.15 K, m1 = 0.0004406 | 0.00229 | –
298.15 K, m1 = 0.0004669 | 0.00237 | –
298.15 K, m1 = 0.0004931 | 0.00244 | –
298.15 K, m1 = 0.0005194 | 0.00251 | –
298.15 K, m1 = 0.0005456 | 0.00258 | –
298.15 K, m1 = 0.0005719 | 0.00265 | –
298.15 K, m1 = 0.0005981 | 0.00273 | –
298.15 K, m1 = 0.0006244 | 0.0028 | –
298.15 K, m1 = 0.0006507 | 0.00287 | –
298.15 K, m1 = 0.0006769 | 0.00294 | –
298.15 K, m1 = 0.0007032 | 0.00301 | –
298.15 K, m1 = 0.0007294 | 0.00309 | –
298.15 K, m1 = 0.0007557 | 0.00316 | –
298.15 K, m1 = 0.0007819 | 0.00323 | –
298.15 K, m1 = 0.0008082 | 0.0033 | –
298.15 K, m1 = 0.0008344 | 0.00337 | –
298.15 K, m1 = 0.000887 | – | 29.41
298.15 K, m1 = 0.001774 | – | 28.9
298.15 K, m1 = 0.002661 | – | 28.56
298.15 K, m1 = 0.003547 | – | 28.41
